US5900434A, “Method for inhibiting the production of interleukin-1 or tumor necrosis factor-α by administering acanthoic acid” (Korea Institute of Science and Technology, priority 1994, dated 1999)

Tests used:
[1] = test system: serum glutamic-pyruvic transaminase (sGPT); experiment: CCl4-induced hepatocirrhosis in rat, serum GPT; type: in vivo, Sprague-Dawley rat; conditions: CCl4-treated rat; 0.2 ml orally twice a week, 13 weeks; FIG. 10
From the text: (§1) Hepatocirrhosis(hepatic sclerosis) is characterized by the fibrosis of whole liver, complete disruption of liver parenchyma by fibrous septa, and formation of regenerative nodules. It is derived mostly from a chronic hepatitis or chronic alcoholism, however, the precise causes thereof are unknown. In a hepatocirrhosis patient, the amount of cytokines, e.g., TNF-α, which is involved in inflammation and fibrosis, is in an increased state; and, therefore, the inhibition of hepatocirrhosis by acanthoic acid may be determined by the inhibitory activity to TNF-α. To induce the experimental hepatocirrhosis in accordance with the method of Nakataukasa, H., et al. as described in J. Clin. Invest., 85, 1833-1843(1990), 1.0 ml/100 g of body weight of CCl4 solution(50% CCl4 +50% corn oil) was injected intraperitoneally to 4 week old male Sprague-Dawley rats twice a week, and 0.2 ml each of methanol extract of A. koreanum Nakai and acanthoic acid was administered orally at the time of the injection of CCl4 twice a week. After 13 weeks from the start of the test, each of the rats was anesthetized with ether and the blood samples were obtained from the heart to determine serum glutamic-oxaloacetic transaminase(sGOT) value and serum glutamic-pyruvic transaminase(sGPT) value(FIG. 10).

[2] = test system: TNF-α production in rat alveolar macrophages and lymphocytes; experiment: Inhibition of TNF-α production in rat alveolar macrophages and lymphocytes; type: cell-based; conditions: 10 μg/ml; 100 μg/ml silica, 3 days; FIG. 4
Method: TNF-α dependent L929 fibroblasts(ATCC CCLl) were suspended in RPMI 1640 medium containing 5% FBS and added to the wells of 96-well incubation plate in an amount of 3×10^4 cells/well. The plate was incubated at 37° C. for 2 hours to make the cells adhere to the incubation plate. Then, the medium was removed and 1 μg/ml of actinomycin D(Sigma) and 50 μl of culture dialyzate of monocytes and macrophages obtained in Example 1 were added to each of the wells. The final concentration of FBS in each well was adjusted to 5% and the cells were incubated at 37° C. under 5% CO2 for 24 hours.
When the incubation was completed, the medium was removed and the cells were washed twice with PBS and stained for 5 minutes with 0.5% crystal violet solution in 20% methanol. The cells were washed three times with PBS and dried. Then, 100 μl of 33% acetic acid was added to each of the wells to release the dye, and then the O.D. of sample obtained from each of the wells was determined by using ELISA reader with 570 nm reading filter and 405 nm reference filter. The amount of released dye was calculated from the O.D. value with reference to that of the internal control group, i.e., rHu TNF-α(Genzyme). […]

[3] = test system: leukocyte migration; conditions: cited from earlier work
[4] = test system: prostaglandin E2 (PGE2) synthesis; conditions: cited from earlier work
[5] = test system: serum glutamic-oxaloacetic transaminase (sGOT); experiment: CCl4-induced hepatocirrhosis in rat, serum GOT; type: in vivo, Sprague-Dawley rat; conditions: vs CCl4, DMSO and PBS control; 0.2 ml orally twice a week, 13 weeks; FIG. 10
From the text: as §1

## C=C[C@@]1(C)CC=C2C(CCC3[C@](C)(C(=O)O)CCC[C@@]23C)C1 (single isomer, unassigned; (-)) [acanthoic acid, (-)-pimara-9(11),15-diene-19-oic acid]
[1]
  decrease of sGPT value: more than 40%
[2]
  inhibition of production of TNF-α: inhibited
[3]
  inhibition of leukocyte migration: inhibit the leukocyte migration
[4]
  inhibition of prostaglandin E2 (PGE2) synthesis: inhibit
[5]
  decrease of sGOT value: 30%
